Measurements published in patent publication EP2002836B1, “Cyclocondensed azaindoles active as kinase inhibitors” (Nerviano Medical Sciences S.r.l., priority 2007, dated 2008).

Test system: S6 ribosomal protein phosphorylation in MCF7
Assay: Inhibition of AKT induced S6 ribosomal protein phosphorylation in MCF7 (immunofluorescence, ArrayScan)
Type: cell-based
Conditions: Homo sapiens, MCF-7 cells, 4 hour treatment at 37°C, anti-phospho-S6 (Ser 235/236), read-out: S6 phosphorylation (Ser235/236) in MCF7-cell IC50
Experimental: MCF-7 cells (ATCC# HTB-22) were seeded in 96-well poly-lysine coated clear- and flat-bottomed black plates (Matrix Technologies Inc., Hudson, NH, USA), in E-MEM medium (MEM+ Earle's BSS + 2 mM glutamine + 0.1 mM non-essential amino acids) containing 10% of FCS at a density of 7000 cells/well, and incubated overnight at 37°C, 5% CO2, 100% relative humidity. After this incubation, cells were treated with increasing compound doses for 4 hour at 37°C. Afterwards, cells were fixed with PBS/3.7% paraformaldehyde for 15 min at room temperature, wash twice with 200 µl/well D-PBS and permeabilize with a D-PBS solution containing 0.1% Triton X-100 (Sigma-Aldrich, St. Louis, MO, USA) and 0.1 % powder Milk for 15 minutes (staining solution). […] Fluorescence images in the DAPI and Cy5™ channels were automatically acquired, stored and analysed using a Cellomics ArrayScan™ IV instrument (Cellomics, Pittsburgh, USA); the Cellomics Cytotoxicity Algorithm was used to quantify cytoplasmic fluorescence associated with phospho-S6 (Cy5™ signal parameter: "Mean Lyso Mass-pH") for each cell in 10 fields/well, and eventually expressed as a mean population value. […]

Row | SMILES | IC50 [µM]
1 | NC[C@H](Cc1ccccc1)NC(=O)C1=Cc2c[nH]c3nccc(c23)CC1 [Cpd. 1, N-[(1S)-2-amino-1-benzylethyl]-6,7-dihydro-2H-2,3-diazabenzo[cd]azulene-8-carboxamide] | 13.5
2 | O=C(N[C@H](CN1CCCC1)c1ccccc1)C1=Cc2c[nH]c3nccc(c23)CC1 [Cpd. 6, N-[(1S)-1-phenyl-2-pyrrolidin-1-ylethyl]-6,7-dihydro-2H-2,3-diazabenzo[cd]azulene-8-carboxamide] | 11.5
